Experimental data taken from ChEMBL document CHEMBL4619762, “Exploring the Sequence Diversity of Cyclotides from Vietnamese Viola Species” (J Nat Prod, 2020).
Bridge positions count the residues as written; N and C are the ends. Peptide text beside a SMILES is read from it.

Columns and labels:
[1] = test system: PC-3; assay: Cytotoxicty against human PC3 cells after 24 hrs by MTT assay; type: functional, cell-based; conditions: PC-3, 24 h
[2] = test system: HUVEC; assay: Cytotoxicty against HUVEC after 24 hrs by MTT assay; type: cell-based; conditions: Homo sapiens
[3] = test system: HeLa; assay: Cytotoxicty against human HeLa cells after 24 hrs by MTT assay; type: functional, cell-based
[4] = test system: Erythrocyte; assay: Hemolytic activity in human red blood cells after 1 hr; type: ADME, cell-based

Structure (SMILES) | IC50 [1] [nM] | IC50 [2] [nM] | IC50 [3] [nM] | IC50 [4] [nM]
CC[C@H](C)[C@@H]1NC(=O)[C@@H]2CSSC[C@@H]3NC(=O)[C@H](C(C)C)NC(=O)[C@H](CCCCN)NC(=O)[C@H](CO)NC(=O)[C@H](CCCCN)NC(=O)[C@@H]4CSSC[C@H](NC(=O)[C@H](CO)NC(=O)[C@H](CCC(=O)O)NC(=O)CNC(=O)[C@H](CSSC[C@H](NC(=O)CNC(=O)[C@@H](CC(C)C)NC(=O)[C@H](CC(C)C)NC(=O)[C@H]([C@@H](C)O)NC(=O)[C@H](CO)NC1=O)C(=O)N[C@@H](CO)C(=O)N4)NC(=O)[C@@H]1CCCN1C(=O)[C@H]([C@@H](C)CC)NC(=O)[C@H](C(C)C)NC(=O)CNC(=O)[C@H](CC(N)=O)NC(=O)[C@H](CCCNC(=N)N)NC(=O)[C@H](Cc1ccc(O)cc1)NC3=O)C(=O)N[C@@H](C(C)C)C(=O)N[C@@H](Cc1ccccc1)C(=O)N[C@@H]([C@@H](C)CC)C(=O)N1CCC[C@H]1C(=O)N2 | 1100 | 1200 | 1800 | –
CC(C)C[C@@H]1NC(=O)CNC(=O)[C@H](CC(N)=O)NC(=O)[C@H](CCCNC(=N)N)NC(=O)[C@H]([C@@H](C)O)NC(=O)[C@@H]2CSSC[C@@H]3NC(=O)[C@H]([C@@H](C)O)NC(=O)CNC(=O)CNC(=O)[C@H](C(C)C)NC(=O)[C@@H]4CSSC[C@H](NC(=O)[C@H](CO)NC(=O)[C@H](CSSC[C@H](NC(=O)[C@H](C(C)C)NC(=O)[C@@H]5CCCN5C1=O)C(=O)NCC(=O)N[C@@H](CCC(=O)O)C(=O)N[C@@H]([C@@H](C)O)C(=O)N4)NC(=O)CNC(=O)[C@@H]1CCCN1C(=O)[C@H]([C@@H](C)O)NC(=O)[C@H](CC(N)=O)NC3=O)C(=O)N[C@@H](CO)C(=O)N[C@@H](Cc1c[nH]c3ccccc13)C(=O)N1CCC[C@H]1C(=O)N[C@@H](C(C)C)C(=O)N2 | 3600 | 4000 | 5200 | ≥ 50000
CC[C@H](C)[C@@H]1NC(=O)[C@H](C)NC(=O)[C@H](CO)NC(=O)[C@H](CO)NC(=O)[C@H]([C@@H](C)CC)NC(=O)[C@@H]2CSSC[C@@H]3NC(=O)[C@H](C(C)C)NC(=O)[C@H](CCCCN)NC(=O)[C@H](CO)NC(=O)[C@H](CCCCN)NC(=O)[C@@H]4CSSC[C@H](NC(=O)[C@H](CO)NC(=O)[C@H](CCC(=O)O)NC(=O)CNC(=O)[C@H](CSSC[C@H](NC(=O)CNC1=O)C(=O)N[C@@H](CO)C(=O)N4)NC(=O)[C@@H]1CCCN1C(=O)[C@H]([C@@H](C)CC)NC(=O)CNC(=O)[C@H](CC(N)=O)NC(=O)[C@H](CCCNC(=N)N)NC(=O)[C@H](Cc1ccc(O)cc1)NC3=O)C(=O)N[C@@H](C(C)C)C(=O)N[C@@H](Cc1c[nH]c3ccccc13)C(=O)N[C@@H]([C@@H](C)CC)C(=O)N1CCC[C@H]1C(=O)N2 (cyclo(AIGCSCKSKVCYRNGIPCGESCVWIPCISS); disulfide 4-18, 6-22, 11-27) | 800 | 600 | 700 | –
CC[C@H](C)[C@@H]1NC(=O)[C@@H]2CSSC[C@@H]3NC(=O)[C@H](C(C)C)NC(=O)[C@H](CCCCN)NC(=O)[C@H](CO)NC(=O)[C@H](CCCCN)NC(=O)[C@@H]4CSSC[C@H](NC(=O)[C@H](CO)NC(=O)[C@H](CCC(=O)O)NC(=O)CNC(=O)[C@H](CSSC[C@H](NC(=O)CNC(=O)[C@H](CC(C)C)NC(=O)[C@H](C)NC(=O)[C@H](C)NC(=O)[C@H]([C@@H](C)O)NC1=O)C(=O)N[C@H](CO)C(=O)N4)NC(=O)[C@@H]1CCCN1C(=O)[C@H]([C@@H](C)CC)NC(=O)CNC(=O)[C@H](CC(N)=O)NC(=O)[C@H](CCCNC(=N)N)NC(=O)[C@H](Cc1ccc(O)cc1)NC3=O)C(=O)N[C@@H](C(C)C)C(=O)N[C@@H](Cc1ccc(O)cc1)C(=O)N[C@@H]([C@@H](C)CC)C(=O)N1CCC[C@H]1C(=O)N2 | 500 | 400 | 500 | 11100
CC[C@H](C)[C@@H]1NC(=O)[C@H](C)NC(=O)[C@H](C)NC(=O)[C@H](CO)NC(=O)[C@H]([C@@H](C)CC)NC(=O)[C@@H]2CSSC[C@@H]3NC(=O)[C@H](C(C)C)NC(=O)[C@H](CCCCN)NC(=O)[C@H](CO)NC(=O)[C@H](CCCCN)NC(=O)[C@@H]4CSSC[C@H](NC(=O)[C@H](CO)NC(=O)[C@H](CCC(=O)O)NC(=O)CNC(=O)[C@H](CSSC[C@H](NC(=O)CNC1=O)C(=O)N[C@@H](CO)C(=O)N4)NC(=O)[C@@H]1CCCN1C(=O)[C@H]([C@@H](C)CC)NC(=O)CNC(=O)[C@H](CC(N)=O)NC(=O)[C@H](CCCNC(=N)N)NC(=O)[C@H](Cc1ccc(O)cc1)NC3=O)C(=O)N[C@@H](C(C)C)C(=O)N[C@@H](Cc1c[nH]c3ccccc13)C(=O)N[C@@H]([C@@H](C)CC)C(=O)N1CCC[C@H]1C(=O)N2 [CYCLOVIOLACIN O13] (cyclo(AAIGCSCKSKVCYRNGIPCGESCVWIPCIS); disulfide 5-19, 7-23, 12-28) | 600 | 500 | 700 | 14900
